One assay addresses T1, PPARα receptors (Homo sapiens, UniProt Q07869).
T1 construct: expressed in transfected cells
T1 sequence (Q07869 1-468): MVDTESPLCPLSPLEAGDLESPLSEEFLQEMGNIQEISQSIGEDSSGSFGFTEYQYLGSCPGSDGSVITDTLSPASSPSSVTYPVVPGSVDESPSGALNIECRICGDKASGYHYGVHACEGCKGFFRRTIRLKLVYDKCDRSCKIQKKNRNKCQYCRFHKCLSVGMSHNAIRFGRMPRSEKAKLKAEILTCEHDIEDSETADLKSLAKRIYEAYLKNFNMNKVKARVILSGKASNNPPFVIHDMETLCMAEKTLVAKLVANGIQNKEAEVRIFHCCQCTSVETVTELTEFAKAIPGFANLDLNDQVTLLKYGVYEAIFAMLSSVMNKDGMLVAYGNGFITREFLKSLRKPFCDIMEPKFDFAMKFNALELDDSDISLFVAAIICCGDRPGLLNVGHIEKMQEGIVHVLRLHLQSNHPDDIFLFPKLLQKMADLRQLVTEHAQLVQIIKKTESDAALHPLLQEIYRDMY
Kind of assay: PPARα transactivation test. Format: cell-based. The note with it: concentration of 1 μM, relative to Wy 14643 = 100%. The source says: [Worded in the source for another target; this target is reported under the same test.] (§1) The agonist activity of the compounds according to the invention towards PPARγ receptors may be evaluated by binding tests and transactivation tests.

Assay [1] concerns the target T2, PPARγ receptors (Homo sapiens, UniProt P37231).
T2 sequence (P37231 1-505): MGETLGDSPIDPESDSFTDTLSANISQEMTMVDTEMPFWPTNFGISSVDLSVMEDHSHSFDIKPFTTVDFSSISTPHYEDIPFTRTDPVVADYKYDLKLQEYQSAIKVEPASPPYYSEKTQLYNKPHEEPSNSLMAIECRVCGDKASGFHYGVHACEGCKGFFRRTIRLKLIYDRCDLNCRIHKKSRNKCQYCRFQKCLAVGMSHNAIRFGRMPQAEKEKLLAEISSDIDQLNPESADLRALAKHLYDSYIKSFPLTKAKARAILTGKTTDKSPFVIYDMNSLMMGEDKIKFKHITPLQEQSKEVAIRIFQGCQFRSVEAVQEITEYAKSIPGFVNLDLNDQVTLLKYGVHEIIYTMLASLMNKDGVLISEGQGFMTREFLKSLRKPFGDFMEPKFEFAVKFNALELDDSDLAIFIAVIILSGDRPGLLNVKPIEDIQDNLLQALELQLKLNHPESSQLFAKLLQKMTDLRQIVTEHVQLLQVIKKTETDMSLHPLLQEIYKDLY
Kind of assay: PPARγ transactivation test. The note with it: concentration of 1 μM, relative to SB 219994 = 100%. More on the design: expressed in transfected cells. In kind it is cell-based.
Excerpt: as §1

Assay [2] deals with T2, PPARγ receptors. Kind of assay: PPARγ binding test, competition with tritiated BRL 49,653. Also on record: made in house; host or cells: Sf9 insect cells (recombinant baculovirus). The note with it: hydroxyapatite gel, receptor from Sf9 insect cells, read-out: Binding of PPAR-γ Kd. How it is done: The technique of adsorption on hydroxyapatite gel was used to separate the receptor-bound ligand from the free ligand. The human PPARγ receptor was prepared from Sf9 insect cells infected with a recombinant baculovirus. The results are expressed as a Kd value (nM) which represents the equilibrium dissociation constant obtained for each compound.
as §1

The structures appear in SMILES notation. Marks after values point to notes of the source that are not given here.

As usually defined, the Kd is the free concentration of one partner at which half of the binding sites on the other are occupied at equilibrium, for simple one-to-one binding. For `CN(Cc1cccc(-c2ccc(CC3SC(=O)NC3=O)cc2)c1)C(=O)c1ccccc1` (stereo not shown) [Example 1, N-[4′-(2,4-Dioxothiazolidin-5-ylmethyl)biphenyl-3-ylmethyl]-N-methylbenzamide], the values for the activation at 1 µM at PPARα receptors and on PPARγ receptors [1] were 8.2% and 102%, respectively. The Kd at PPARγ receptors [2] turned out to be 55 nM.
Taken in the same sequence, the figures for `CN(Cc1cccc(-c2ccc(CC3SC(=O)NC3=O)cc2)c1)c1ccccn1` (stereo not shown) [Example 2, 5-{3′-[(Methylpyrid-2-ylamino)methyl]biphenyl-4-ylmethyl}thiazolidine-2,4-dione] were 8.2%, 42.9% and 263 nM.
Taken in the same sequence, the figures for `CN(Cc1cccc(-c2ccc(CC3SC(=O)NC3=O)cc2)c1)C(=O)Nc1ccccc1` (stereo not shown) [Example 10, 1-[4′-(2,4-Dioxothiazolidin-5-ylmethyl)biphenyl-3-ylmethyl]-1-methyl-3-phenylurea] were 0%, 22.1% and 800 nM.
Taken in the same sequence, the figures for `CN(Cc1cccc(-c2ccc(CC3SC(=O)NC3=O)cc2)c1)C(=O)OC(C)(C)C` (stereo not shown) [Example 11, tert-Butyl [4′-(2,4-dioxothiazolidin-5-ylmethyl)biphenyl-3-ylmethyl]methylcarbamate] were 2.4%, 74.5% and 289 nM.
`CCCCCCCCC(=O)N(C)Cc1cccc(-c2ccc(CC3SC(=O)NC3=O)cc2)c1` (stereo not shown) [Example 12, N-[4′[2,4-dioxothiazolidin-5-ylmethyl)biphenyl-3-ylmethyl]-N-methylnonanamide]: the figures for the activation at 1 µM at PPARα receptors and at PPARγ receptors [1] were 0% and 60.4%, respectively. Further, the Kd at PPARγ receptors [2] amounted to 7 nM.
Taken in the same sequence, the figures for `CCO[C@@H](Cc1ccc(-c2cccc(CN(C)C(=O)c3ccccc3)c2)cc1)C(=O)O` [Example 13, (S)-2-Ethoxy-3-(3′-{[methyl-(1-phenylmethanoyl)-amino]methyl}biphenyl-4-yl)propionic acid] were 0%, 70.2% and 24 nM.
In the same order, the values of `CN(Cc1cccc(-c2ccc(CC3SC(=O)NC3=O)cc2)c1)C(=O)OCC1c2ccccc2-c2ccccc21` (stereo not shown) [Example 21, 9H-Fluoren-9-ylmethyl [4′-(2,4-dioxothiazolidin-5-ylmethyl)biphenyl-3-ylmethyl]methylcarbamate] are 14.9%, 90% and 190 nM.
In the same order, the values of `CN(Cc1cccc(-c2ccc(CC3SC(=O)NC3=O)cc2)c1)C(=O)C(C)(C)C` (stereo not shown) [Example 22, N-[4′-(2,4-Dioxothiazolidin-5-ylmethyl)biphenyl-3-ylmethyl]-2,2,N-trimethylpropionamide] are 7.5%, 95.3% and 76.6 nM.
As for `CN(Cc1cccc(-c2ccc(CC3SC(=O)NC3=O)cc2)c1)C(=O)CCc1ccccc1` (stereo not shown) [Example 24, N-[4′-(2,4-Dioxothiazolidin-5-ylmethyl)biphenyl-3-ylmethyl]-N-methyl-3-phenylpropionamide], the activation at 1 µM on PPARα receptors amounted to 8.7%; on PPARγ receptors [1], 95%. The Kd on PPARγ receptors [2] was determined as 72.3 nM.
Consider `CCCN(Cc1cccc(-c2ccc(C=C3SC(=O)NC3=O)cc2)c1)C(=O)c1ccccc1` [Example 26, N-[4′-(2,4-Dioxothiazolidin-5-ylidenemethyl)-biphenyl-3-ylmethyl]-N-propylbenzamide], for which the activation at 1 µM was 2.1% on PPARα receptors and 88.6% on PPARγ receptors [1].
In the same order, the values of `CCOc1ccc(C(=O)N(C)Cc2cccc(-c3ccc(CC4SC(=O)NC4=O)cc3)c2)cc1OCC` (stereo not shown) [Example 28, N-[4′-(2,4-Dioxothiazolidin-5-ylmethyl)biphenyl-3-ylmethyl]-3,4-diethoxy-N-methylbenzamide] are 1.1% and 79.8%.
Consider `CN(Cc1ccccc1)C(=O)c1cccc(-c2ccc(CC3SC(=O)NC3=O)cc2)c1` (stereo not shown) [Example 30, N-Benzyl-N-methyl-4′-(2,4-dioxothiazolidin-5-ylmethyl)biphenyl-3-carboxamide], for which the figures for the activation at 1 µM at PPARα receptors and on PPARγ receptors [1] were 8.9% and 80.3%, respectively.
Taken in the same sequence, the figures for `CCCCCCCCCC(=O)N(C)Cc1cccc(-c2ccc(CC3SC(=O)NC3=O)cc2)c1` (stereo not shown) [Example 32, N-[4′-(2,4-Dioxothiazolidin-5-ylmethyl)biphenyl-3-ylmethyl]-N-methyldecanamide] were 0% and 74.9%.
On to `CCCCCCCC(=O)N(C)Cc1cccc(-c2ccc(CC3SC(=O)NC3=O)cc2)c1` (stereo not shown) [Example 34, N-[4′-(2,4-Dioxothiazolidin-5-ylmethyl)biphenyl-3-ylmethyl]-N-methyloctanamide], for which the values for the activation at 1 µM on PPARα receptors and on PPARγ receptors [1] were 17.6% and 102%, respectively. In addition, at PPARγ receptors [2], the Kd stood at 2 nM.
Take `CCCCCCC(=O)N(C)Cc1cccc(-c2ccc(CC3SC(=O)NC3=O)cc2)c1` (stereo not shown) [Example 35, N-[4′-(2,4-Dioxothiazolidin-5-ylmethyl)biphenyl-3-ylmethyl]-N-methylheptanamide]: the activation at 1 µM was determined as 11% at PPARα receptors and 56% at PPARγ receptors [1].
With `Cc1cccc(Nc2cc(Cl)nc(SCC(=O)O)n2)c1C` [Reference 1: Wy 14643, reference compound], on PPARα receptors, the “% of activation of PPARα” value was 100* %.
On to `CN(CCOc1ccc(C[C@H](OCC(F)(F)F)C(=O)O)cc1)c1nc2ccccc2o1` [Reference 2: SB 219994, reference compound], for which the “% of activation of PPARγ” value at PPARγ receptors [1] was found to be 100%. For the same compound, at PPARγ receptors [2], the Kd worked out at 0.5 nM.
